Reference: patent US20240246955A1, “TROPOMYOSIN RECEPTOR KINASE (TRK) DEGRADATION COMPOUNDS AND METHODS OF USE” (CULLGEN (SHANGHAI), INC., priority 2021, published 2024)

Legend:
KM12 cells = experiment: KM12 cell viability assay (CellTiter-Glo); assay type: cell-based; conditions: for IC50: Homo sapiens, 72 h, KM12 cells, 3 days, CellTiter-Glo
Description: The kinase activity of TRK is known to play important roles in tumors expressing TRK-fusion proteins, as TRK kinase inhibitors compromise cell proliferation, survival, and induce marked clinical responses (Amatu et al., 2016; Drilon et al., 2018; Drilon et al., 2017; Khotskaya et al., 2017). KM12 cells seeded in 96-well plates were treated with heterobifunctional compounds following a 11-point 3-fold serial dilution. Three days after treatment, cell viability was determined using the CellTiter-Glo kit, and normalized to the mean values of 3 replicates of untreated cells. Dose-dependent response was analyzed following the least-squares non-linear regression method using the GraphPad Prism software. Each data point in the figure represents the mean values of three technical replicates ±standard deviation.
KM12 cells seeded in 96-well plates were treated with heterobifunctional compounds following a 11-point 3-fold serial dilution for 3 days.
KM12, TRKA G595R mutated KM12, HEL, and other cells were cultured at 37° C. with 5% CO2 in DMEM or RPMI 1640 Medium supplemented with 10% fetal bovine serum. Cells were authenticated using the short tandem repeat (STR) assays. Mycoplasma test results were negative.
Cells were seeded at a density of 5000 cells per well in 96-well assay plates and treated with test compounds following a 11-point 3-fold serial dilution. Three days later, cell viability was determined using the CellTiter-Glo assay kit (Promega) according to the manufacturer's instructions. The dose-response curves were determined and IC50 values were calculated using the GraphPad Prism software following a nonlinear regression (least squares fit) method.

TPM3-TRKA fusion protein = molecular target: T1, TPM3-TRKA fusion protein (Homo sapiens, UniProt P04629); experiment: TPM3-TRKA degradation in KM12 cells (Western blot); assay type: cell-based; conditions: 16 hours, TRK protein, immunoblot; for inhibition at 0.01 µM: 10 nM; for inhibition at 0.1 µM: 100 nM
T1 construct: TPM3 (N-terminal part of tropomyosin alpha-3, natural fusion partner); endogenous in cells; host or cells: KM12 colon cancer cells; the other entry of the earlier key: TPM3 (P06753, Tropomyosin alpha-3 chain)
Description: Specific exemplary heterobifunctional compounds were characterized in KM12 cells. KM12 cells that express TPM3-TRKA fusion protein were treated with 10 nM or 100 nM heterobifunctional compounds disclosed herein or their corresponding warheads/inhibitors for 16 hours. Cells were collected, lysed and subject to immunoblotting using an antibody specific to TRK proteins.
KM12 cells were treated with heterobifunctional compounds at 10 nM or 100 nM for 16 hours.
Cultured cells were washed with cold PBS once and lysed in cold RIPA buffer supplemented with protease inhibitors and phosphatase inhibitors (Beyotime Biotechnology). The solutions were then incubated at 4° C. for 30 minutes with gentle agitation to fully lyse cells. Cell lysates were centrifuged at 13,000 rpm for 10 minutes at 4° C. and pellets were discarded. Total protein concentrations in the lysates were determined by BCA assays (Beyotime Biotechnology). Cell lysates were mixed with Laemmli loading buffer to 1× and heated at 99° C. for 5 min. Proteins were resolved on SDS-PAGE and visualized by chemiluminescence. Images were taken by a ChemiDoc MP Imaging system (Bio-Rad). Protein bands were quantitated using the software provided by Bio-Rad.
The percentage of TRK protein degradation of each compound at 10 nM and 100 nM was determined in KM12 cells as described in Methods. The percentage of degradation of each compound was indicated in the following categories: N/A: data not available; −: no degradation; +: degradation less than 50%; ++: degradation equal or greater than 50% but less than […]; +++: degradation equal or greater than 80%.

T1 sequence (P04629 with tags, fused parts or gaps): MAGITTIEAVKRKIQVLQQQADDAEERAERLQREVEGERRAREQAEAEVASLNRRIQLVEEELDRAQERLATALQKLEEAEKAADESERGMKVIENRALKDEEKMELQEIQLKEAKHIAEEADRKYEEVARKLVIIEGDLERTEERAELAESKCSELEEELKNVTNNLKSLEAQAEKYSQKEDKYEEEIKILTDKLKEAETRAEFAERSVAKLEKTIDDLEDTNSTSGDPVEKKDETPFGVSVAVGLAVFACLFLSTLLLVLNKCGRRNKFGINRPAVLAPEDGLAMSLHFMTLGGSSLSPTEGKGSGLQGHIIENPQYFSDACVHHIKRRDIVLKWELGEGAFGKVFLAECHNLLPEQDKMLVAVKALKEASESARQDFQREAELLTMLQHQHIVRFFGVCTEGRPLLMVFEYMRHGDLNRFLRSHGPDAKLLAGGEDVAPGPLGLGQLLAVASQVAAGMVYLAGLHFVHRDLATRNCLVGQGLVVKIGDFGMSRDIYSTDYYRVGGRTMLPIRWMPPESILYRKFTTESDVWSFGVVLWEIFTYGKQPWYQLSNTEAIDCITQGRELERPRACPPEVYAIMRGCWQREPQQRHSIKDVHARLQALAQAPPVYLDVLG

| inhibition at 0.01 µM (TPM3-TRKA fusion protein) [%] | inhibition at 0.1 µM (TPM3-TRKA fusion protein) [%] | SMILES | IC50 (KM12 cells) [nM] | viability of KM12 cells (KM12 cells; 11-point 3-fold serial dilution, 3 days (FIG. 3)) |
| --- | --- | --- | --- | --- |
| 50 to 800 | 50 to 800 | COCCN1C[C@@H](NC(=O)Nc2c(C)c(-c3cnc(N4CCN(C(=O)CCCCCCCCCNC(=O)C[C@H](NC(=O)[C@@H]5C[C@@H](O)CN5C(=O)[C@@H](NC(=O)C5(F)CC5)C(C)(C)C)c5ccc(-c6scnc6C)cc5)CC4)nc3)nn2-c2ccccc2)[C@H](c2cccc(F)c2)C1 [CPD-015, (2S,4R)-1-((S)-2-(1-fluorocyclopropane-1-carboxamido)-3,3-dimethylbutanoyl)-N-((S)-3-((10-(4-(5-(5-(3-((3S,4R)-4-(3-fluorophenyl)-1-(2-methoxyethyl)pyrrolidin-3-yl)ureido)-4-methyl-1-phenyl-1H-pyrazol-3-yl)pyrimidin-2-yl)piperazin-1-yl)-10-oxodecyl)amino)-1-(4-(4-methylthiazol-5-yl)phenyl)-3-oxopropyl)-4-hydroxypyrrolidine-2-carboxamide] | 35.5 | – |
| – | 50 to 800 | COCCN1C[C@@H](NC(=O)Nc2c(C)c(-c3cnc(N4CCN(C(=O)CCOCCOCCOCCOCCNC(=O)C[C@H](NC(=O)[C@@H]5C[C@@H](O)CN5C(=O)[C@@H](NC(=O)C5(F)CC5)C(C)(C)C)c5ccc(-c6scnc6C)cc5)CC4)nc3)nn2-c2ccccc2)[C@H](c2cccc(F)c2)C1 [CPD-018, (2S,4R)-1-((S)-2-(1-fluorocyclopropane-1-carboxamido)-3,3-dimethylbutanoyl)-N-((S)-19-(4-(5-(5-(3-((3S,4R)-4-(3-fluorophenyl)-1-(2-methoxyethyl)pyrrolidin-3-yl)ureido)-4-methyl-1-phenyl-1H-pyrazol-3-yl)pyrimidin-2-yl)piperazin-1-yl)-1-(4-(4-methylthiazol-5-yl)phenyl)-3,19-dioxo-7,10,13,16-tetraoxa-4-azanonadecyl)-4-hydroxypyrrolidine-2-carboxamide] | 852 | – |
| < 50 | 50 to 800 | COCCN1C[C@@H](NC(=O)Nc2c(C)c(-c3cnc(N4CCN(C(=O)CCOCCOCCNC(=O)C[C@H](NC(=O)[C@@H]5C[C@@H](O)CN5C(=O)[C@@H](NC(=O)C5(F)CC5)C(C)(C)C)c5ccc(-c6scnc6C)cc5)CC4)nc3)nn2-c2ccccc2)[C@H](c2cccc(F)c2)C1 [CPD-016, (2S,4R)-1-((S)-2-(1-fluorocyclopropane-1-carboxamido)-3,3-dimethylbutanoyl)-N-((S)-3-((2-(2-(3-(4-(5-(5-(3-((3S,4R)-4-(3-fluorophenyl)-1-(2-methoxyethyl)pyrrolidin-3-yl)ureido)-4-methyl-1-phenyl-1H-pyrazol-3-yl)pyrimidin-2-yl)piperazin-1-yl)-3-oxopropoxy)ethoxy)ethyl)amino)-1-(4-(4-methylthiazol-5-yl)phenyl)-3-oxopropyl)-4-hydroxypyrrolidine-2-carboxamide] | 190 | – |

More lines, now with the values behind:

| SMILES | inhibition at 0.01 µM (TPM3-TRKA fusion protein) [%] | inhibition at 0.1 µM (TPM3-TRKA fusion protein) [%] | IC50 (KM12 cells) [nM] | viability of KM12 cells (KM12 cells; 11-point 3-fold serial dilution, 3 days (FIG. 3)) |
| --- | --- | --- | --- | --- |
| COCCN1C[C@@H](NC(=O)Nc2c(C)c(-c3cnc(N4CCN(C(=O)CCCNc5cccc6c5C(=O)N(C5CCC(=O)NC5=O)C6=O)CC4)nc3)nn2-c2ccccc2)[C@H](c2cccc(F)c2)C1 (stereo partly drawn) [CPD-004, 1-(3-(2-(4-(4-((2-(2,6-dioxopiperidin-3-yl)-1,3-dioxoisoindolin-4-yl)amino)butanoyl)piperazin-1-yl)pyrimidin-5-yl)-4-methyl-1-phenyl-1H-pyrazol-5-yl)-3-((3S,4R)-4-(3-fluorophenyl)-1-(2-methoxyethyl)pyrrolidin-3-yl)urea] | 50 to 800 | 50 to 800 | 25.8 | – |
| COCCN1C[C@@H](NC(=O)Nc2c(C)c(-c3cnc(N4CCN(C(=O)CCCNc5ccc6c(c5)C(=O)N(C5CCC(=O)NC5=O)C6=O)CC4)nc3)nn2-c2ccccc2)[C@H](c2cccc(F)c2)C1 (stereo partly drawn) [CPD-002, 1-(3-(2-(4-(4-((2-(2,6-dioxopiperidin-3-yl)-1,3-dioxoisoindolin-5-yl)amino)butanoyl)piperazin-1-yl)pyrimidin-5-yl)-4-methyl-1-phenyl-1H-pyrazol-5-yl)-3-((3S,4R)-4-(3-fluorophenyl)-1-(2-methoxyethyl)pyrrolidin-3-yl)urea] | > 80 | > 80 | 9.7 | inhibited the viability |
| COCCN1C[C@@H](NC(=O)Nc2c(C)c(-c3cnc(N4CCN(C(=O)CCCCCNc5cccc6c5C(=O)N(C5CCC(=O)NC5=O)C6=O)CC4)nc3)nn2-c2ccccc2)[C@H](c2cccc(F)c2)C1 (stereo partly drawn) [CPD-007, 1-(3-(2-(4-(6-((2-(2,6-dioxopiperidin-3-yl)-1,3-dioxoisoindolin-4-yl)amino)hexanoyl)piperazin-1-yl)pyrimidin-5-yl)-4-methyl-1-phenyl-1H-pyrazol-5-yl)-3-((3S,4R)-4-(3-fluorophenyl)-1-(2-methoxyethyl)pyrrolidin-3-yl)urea] | > 80 | > 80 | 10.6 | – |
| COCCN1C[C@@H](NC(=O)Nc2c(C)c(-c3cnc(N4CCN(C(=O)CCOCCOCCOCCOCCNc5cccc6c5C(=O)N(C5CCC(=O)NC5=O)C6=O)CC4)nc3)nn2-c2ccccc2)[C@H](c2cccc(F)c2)C1 (stereo partly drawn) [CPD-010, 1-(3-(2-(4-(1-((2-(2,6-dioxopiperidin-3-yl)-1,3-dioxoisoindolin-4-yl)amino)-3,6,9,12-tetraoxapentadecan-15-oyl)piperazin-1-yl)pyrimidin-5-yl)-4-methyl-1-phenyl-1H-pyrazol-5-yl)-3-((3S,4R)-4-(3-fluorophenyl)-1-(2-methoxyethyl)pyrrolidin-3-yl)urea] | 50 to 800 | > 80 | 86.1 | – |
| COCCN1C[C@@H](NC(=O)Nc2c(C)c(-c3cnc(N4CCN(C(=O)CCCCCCCNc5ccc6c(c5)C(=O)N(C5CCC(=O)NC5=O)C6=O)CC4)nc3)nn2-c2ccccc2)[C@H](c2cccc(F)c2)C1 (stereo partly drawn) [CPD-006, 1-(3-(2-(4-(8-((2-(2,6-dioxopiperidin-3-yl)-1,3-dioxoisoindolin-5-yl)amino)octanoyl)piperazin-1-yl)pyrimidin-5-yl)-4-methyl-1-phenyl-1H-pyrazol-5-yl)-3-((3S,4R)-4-(3-fluorophenyl)-1-(2-methoxyethyl)pyrrolidin-3-yl)urea] | > 80 | > 80 | 10.3 | – |
| COCCN1C[C@@H](NC(=O)Nc2c(C)c(-c3cnc(N4CCN(C(=O)CCOCCOCCOCCOCCOCCNC(=O)C[C@H](NC(=O)[C@@H]5C[C@@H](O)CN5C(=O)[C@@H](NC(=O)C5(F)CC5)C(C)(C)C)c5ccc(-c6scnc6C)cc5)CC4)nc3)nn2-c2ccccc2)[C@H](c2cccc(F)c2)C1 [CPD-001, (2S,4R)-1-((S)-2-(1-fluorocyclopropane-1-carboxamido)-3,3-dimethylbutanoyl)-N-((S)-22-(4-(5-(5-(3-((3S,4R)-4-(3-fluorophenyl)-1-(2-methoxyethyl)pyrrolidin-3-yl)ureido)-4-methyl-1-phenyl-1H-pyrazol-3-yl)pyrimidin-2-yl)piperazin-1-yl)-1-(4-(4-methylthiazol-5-yl)phenyl)-3,22-dioxo-7,10,13,16,19-pentaoxa-4-azadocosyl)-4-hydroxypyrrolidine-2-carboxamide] | – | – | 518 | – |
